{"source": "paper PMC5613062", "about": "(Investigational New Drugs, 2017)", "key": {"[1]": {"test_system": "CYP 2D6", "set-up": "method as in earlier work", "conditions": "at concentrations up to 50uM; ref IB; cited from earlier work"}, "[2]": {"experiment": "Phase I safety/tolerability, DLT and MTD: selumetinib + erlotinib 100 mg orally QD in patients with advanced solid tumors"}, "[3]": {"experiment": "Pharmacokinetics alone and in combination, selumetinib + erlotinib arm", "description": "PK parameters were derived using non-compartmental analysis. Cmax and tmax were determined by visual inspection of the plasma concentration-time profiles. AUC(0–12) was calculated by the linear trapezoidal rule. Where more than one maximum occurred, the reported value was assigned to the first occurrence."}}, "data": [{"smiles": "Cn1cnc2c(F)c(Nc3ccc(Br)cc3Cl)c(C(=O)NOCCO)cc21", "note": "[Selumetinib]", "values": [{"measurement": "inhibition of CYP2D6", "setting": "[1]", "value": "no inhibition"}, {"measurement": "protocol-defined MTD of selumetinib plus erlotinib (part A)", "setting": "[2]; part A dose escalation, later not tolerated in part B", "value": 50, "unit": "mg BID"}, {"measurement": "selumetinib dose recommended for future phase II studies", "setting": "[2]; plus erlotinib 100 mg QD", "value": 100, "unit": "mg QD"}, {"measurement": "MTD of selumetinib in combination with erlotinib", "setting": "[2]; with erlotinib 100 mg QD", "value": 100, "unit": "mg QD"}, {"measurement": "Cmax", "setting": "[3]; geometric mean (% CV), dosed alone, selumetinib 50 mg cohort (N = 14), erlotinib 100 mg QD", "value": "926.5 (69.10) ng/mL"}, {"measurement": "Cmax", "setting": "[3]; geometric mean (% CV), dosed in combination, selumetinib 50 mg BID (N = 12) + erlotinib 100 mg QD", "value": "1334 (51.16) ng/mL"}, {"measurement": "Cmax", "setting": "[3]; geometric mean, QD cohorts, in combination, selumetinib 50 mg (N = 6) + erlotinib 100 mg QD", "value": 942, "unit": "ng/mL"}, {"measurement": "tmax", "setting": "[3]; human, plasma, oral", "value": 1.25, "unit": "h"}, {"measurement": "AUC(0-t)", "setting": "[3]; human, plasma, oral, 100 mg, AUC(0–8), geometric mean, QD cohorts, dosed alone, selumetinib 100 mg cohort (N = 6), erlotinib 100 mg QD", "value": 4400, "unit": "ng·h/mL"}, {"measurement": "AUC(0-t)", "setting": "[3]; human, plasma, oral, 100 mg, AUC(0–12), geometric mean, QD cohorts, dosed alone, selumetinib 100 mg cohort (N = 6), erlotinib 100 mg QD", "value": 5000, "unit": "ng·h/mL"}, {"measurement": "Cmax", "setting": "[3]; human, plasma, oral, 100 mg, Cmax, geometric mean, QD cohorts, dosed alone, selumetinib 100 mg cohort (N = 6), erlotinib 100 mg QD", "value": 1800, "unit": "ng/mL"}, {"measurement": "AUC(0-t)", "setting": "[3]; human, plasma, oral, AUC(0–8), geometric mean (% CV), dosed alone, selumetinib 50 mg cohort (N = 14), erlotinib 100 mg QD", "value": 2280, "unit": "ng·h/mL"}, {"measurement": "AUC(0-t)", "setting": "[3]; human, plasma, oral, AUC(0–8), geometric mean (% CV), dosed alone, selumetinib 75 mg cohort (N = 6), erlotinib 100 mg QD", "value": 2860, "unit": "ng·h/mL"}, {"measurement": "AUC(0-t)", "setting": "[3]; human, plasma, oral, AUC(0–8), geometric mean (% CV), dosed in combination, selumetinib 50 mg BID (N = 12) + erlotinib 100 mg QD", "value": 3640, "unit": "ng·h/mL"}, {"measurement": "AUC(0-t)", "setting": "[3]; human, plasma, oral, AUC(0–8), geometric mean (% CV), dosed in combination, selumetinib 75 mg BID (N = 6) + erlotinib 100 mg QD", "value": 4350, "unit": "ng·h/mL"}, {"measurement": "AUC(0-t)", "setting": "[3]; human, plasma, oral, AUC(0–8), geometric mean, QD cohorts, dosed alone, selumetinib 50 mg cohort (N = 7), erlotinib 100 mg QD", "value": 1900, "unit": "ng·h/mL"}, {"measurement": "AUC(0-t)", "setting": "[3]; human, plasma, oral, AUC(0–8), geometric mean, QD cohorts, dosed alone, selumetinib 150 mg cohort (N = 13), erlotinib 100 mg QD", "value": 6780, "unit": "ng·h/mL"}, {"measurement": "AUC(0-t)", "setting": "[3]; human, plasma, oral, AUC(0–8), geometric mean, QD cohorts, in combination, selumetinib 50 mg (N = 6) + erlotinib 100 mg QD", "value": 2600, "unit": "ng·h/mL"}, {"measurement": "AUC(0-t)", "setting": "[3]; human, plasma, oral, AUC(0–8), geometric mean, QD cohorts, in combination, selumetinib 100 mg (N = 6) + erlotinib 100 mg QD", "value": 7070, "unit": "ng·h/mL"}, {"measurement": "AUC(0-t)", "setting": "[3]; human, plasma, oral, AUC(0–8), geometric mean, QD cohorts, in combination, selumetinib 150 mg (N = 12) + erlotinib 100 mg QD", "value": 9190, "unit": "ng·h/mL"}, {"measurement": "AUC(0-t)", "setting": "[3]; human, plasma, oral, AUC(0–12), geometric mean (% CV), dosed alone, selumetinib 50 mg cohort (N = 14), erlotinib 100 mg QD", "value": 2700, "unit": "ng·h/mL"}, {"measurement": "AUC(0-t)", "setting": "[3]; human, plasma, oral, AUC(0–12), geometric mean (% CV), dosed alone, selumetinib 75 mg cohort (N = 6), erlotinib 100 mg QD", "value": 3200, "unit": "ng·h/mL"}, {"measurement": "AUC(0-t)", "setting": "[3]; human, plasma, oral, AUC(0–12), geometric mean (% CV), dosed in combination, selumetinib 50 mg BID (N = 12) + erlotinib 100 mg QD", "value": 4010, "unit": "ng·h/mL"}, {"measurement": "AUC(0-t)", "setting": "[3]; human, plasma, oral, AUC(0–12), geometric mean (% CV), dosed in combination, selumetinib 75 mg BID (N = 6) + erlotinib 100 mg QD", "value": 4830, "unit": "ng·h/mL"}, {"measurement": "AUC(0-t)", "setting": "[3]; human, plasma, oral, AUC(0–12), geometric mean, QD cohorts, dosed alone, selumetinib 50 mg cohort (N = 7), erlotinib 100 mg QD", "value": 2130, "unit": "ng·h/mL"}, {"measurement": "AUC(0-t)", "setting": "[3]; human, plasma, oral, AUC(0–12), geometric mean, QD cohorts, dosed alone, selumetinib 150 mg cohort (N = 13), erlotinib 100 mg QD", "value": 7740, "unit": "ng·h/mL"}, {"measurement": "AUC(0-t)", "setting": "[3]; human, plasma, oral, AUC(0–12), geometric mean, QD cohorts, in combination, selumetinib 100 mg (N = 6) + erlotinib 100 mg QD", "value": 7760, "unit": "ng·h/mL"}, {"measurement": "AUC(0-t)", "setting": "[3]; human, plasma, oral, AUC(0–12), geometric mean, QD cohorts, in combination, selumetinib 150 mg (N = 12) + erlotinib 100 mg QD", "value": 10500, "unit": "ng·h/mL"}, {"measurement": "Cmax", "setting": "[3]; human, plasma, oral, Cmax, geometric mean (% CV), dosed alone, selumetinib 75 mg cohort (N = 6), erlotinib 100 mg QD", "value": 1050, "unit": "ng/mL"}, {"measurement": "Cmax", "setting": "[3]; human, plasma, oral, Cmax, geometric mean (% CV), dosed in combination, selumetinib 75 mg BID (N = 6) + erlotinib 100 mg QD", "value": 1660, "unit": "ng/mL"}, {"measurement": "Cmax", "setting": "[3]; human, plasma, oral, Cmax, geometric mean, QD cohorts, dosed alone, selumetinib 50 mg cohort (N = 7), erlotinib 100 mg QD", "value": 683, "unit": "ng/mL"}, {"measurement": "Cmax", "setting": "[3]; human, plasma, oral, Cmax, geometric mean, QD cohorts, dosed alone, selumetinib 150 mg cohort (N = 13), erlotinib 100 mg QD", "value": 2450, "unit": "ng/mL"}, {"measurement": "Cmax", "setting": "[3]; human, plasma, oral, Cmax, geometric mean, QD cohorts, in combination, selumetinib 100 mg (N = 6) + erlotinib 100 mg QD", "value": 2600, "unit": "ng/mL"}, {"measurement": "Cmax", "setting": "[3]; human, plasma, oral, Cmax, geometric mean, QD cohorts, in combination, selumetinib 150 mg (N = 12) + erlotinib 100 mg QD", "value": 2810, "unit": "ng/mL"}]}]}
